Source: patent US20250230165A1, “HETEROCYCLIC COMPOUNDS FOR USE IN THE TREATMENT OF CANCER” (ARTIOS PHARMA LIMITED, priority 2021, published 2025)

Biological target: T1, Human Polθ polymerase domain (aa1820-2590) (Homo sapiens, UniProt O75417)
T1 construct: Human Polθ polymerase domain (aa1820-2590) was expressed in E. coli; made in house; host or cells: E. coli
T1 sequence (O75417 1820-2590): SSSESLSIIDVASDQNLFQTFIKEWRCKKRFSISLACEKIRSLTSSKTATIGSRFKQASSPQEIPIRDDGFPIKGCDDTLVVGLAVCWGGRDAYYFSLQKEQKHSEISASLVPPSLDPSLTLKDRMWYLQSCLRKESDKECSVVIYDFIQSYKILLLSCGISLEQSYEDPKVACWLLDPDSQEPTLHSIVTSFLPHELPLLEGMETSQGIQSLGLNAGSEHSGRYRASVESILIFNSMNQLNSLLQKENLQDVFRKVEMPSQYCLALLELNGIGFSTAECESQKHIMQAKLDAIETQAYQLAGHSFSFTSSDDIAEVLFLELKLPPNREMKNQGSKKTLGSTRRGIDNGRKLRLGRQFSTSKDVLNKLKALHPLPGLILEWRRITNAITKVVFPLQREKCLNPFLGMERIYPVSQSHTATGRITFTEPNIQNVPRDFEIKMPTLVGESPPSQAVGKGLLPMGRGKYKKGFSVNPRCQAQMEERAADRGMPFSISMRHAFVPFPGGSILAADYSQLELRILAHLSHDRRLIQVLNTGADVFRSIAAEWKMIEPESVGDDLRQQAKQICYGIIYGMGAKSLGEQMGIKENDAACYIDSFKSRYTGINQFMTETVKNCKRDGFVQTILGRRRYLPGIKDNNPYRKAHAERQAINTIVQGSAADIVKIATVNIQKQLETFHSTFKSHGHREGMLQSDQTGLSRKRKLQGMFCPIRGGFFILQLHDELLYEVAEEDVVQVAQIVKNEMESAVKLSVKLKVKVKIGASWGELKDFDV
Assay: Polθ Polymerase Domain Kinact/KI Assay (PicoGreen)
Type: biochemical
Conditions: 0.8 nM Polθ, 100 nM DNA substrate, kobs vs [I] fit for 2-step covalent inhibitor
How it was run: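 Covalent Kinact/KI by PicoGreen DNA synthesis readout: E. coli-expressed Polθ polymerase domain (0.8 nM), 100 nM annealed DNA substrate, […], Tris pH 7.5 buffer with DTT, 1% DMSO; EDTA-stopped over 0–60 min time course. kobs from progress curves, then kobs vs [I] fit to two-step covalent model.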

Row | Kinact/Kl | Compound
1 | 1.47e+06 M⁻¹ s⁻¹ | C=C(CN(C)C)C(=O)N1CC(CN2C[C@H]3CC(=O)N(c4cc(C(F)(F)F)cc(C)n4)[C@@H]3C(=O)N(C)c3cccc(Cl)c32)C1 [Example 297, (3aR,11aS)-6-chloro-5-((1-(2-((dimethylamino)methyl)acryloyl)azetidin-3-yl)methyl)-10-methyl-1-(6-methyl-4-(trifluoromethyl)pyridin-2-yl)-1,3a,4,5,10,11a-hexahydro-2H-benzo[b]pyrrolo[2,3-f][1,4]diazocine-2,11(3H)-dione]
2 | 950000 M⁻¹ s⁻¹ | C=CC(=O)Nc1ccc(CN2C[C@H]3CC(=O)N(c4cc(C(F)(F)F)cc(C)n4)[C@@H]3C(=O)N(C)c3cccc(Cl)c32)nc1 [Example 283, N-(6-(((3aR,11aS)-6-chloro-10-methyl-1-(6-methyl-4-(trifluoromethyl)pyridin-2-yl)-2,11-dioxo-1,2,3,3a,4,10,11,11a-octahydro-5H-benzo[b]pyrrolo[2,3-f][1,4]diazocin-5-yl)methyl)pyridin-3-yl)acrylamide]
3 | 980000 M⁻¹ s⁻¹ | C=CC(=O)N1CC(C)(N2CCC(CN3C[C@H]4CC(=O)N(c5cc(C(F)(F)F)cc(C)n5)[C@@H]4C(=O)N(C)c4cccc(Cl)c43)CC2)C1 [Example 137, (3aR,11aS)-5-((1-(1-acryloyl-3-methylazetidin-3-yl)piperidin-4-yl)methyl)-6-chloro-10-methyl-1-(6-methyl-4-(trifluoromethyl)pyridin-2-yl)-1,3a,4,5,10,11a-hexahydro-2H-benzo[b]pyrrolo[2,3-f][1,4]diazocine-2,11(3H)-dione]
4 | 560000 M⁻¹ s⁻¹ | C=CC(=O)N1CC(N2CC[C@@H](CN3C[C@H]4CC(=O)N(c5cc(C(F)(F)F)cc(C)n5)[C@@H]4C(=O)N(C)c4cccc(Cl)c43)C2)C1 [Example 219, (3aR,11aS)-5-(((R)-1-(1-acryloylazetidin-3-yl)pyrrolidin-3-yl)methyl)-6-chloro-10-methyl-1-(6-methyl-4-(trifluoromethyl)pyridin-2-yl)-1,3a,4,5,10,11a-hexahydro-2H-benzo[b]pyrrolo [2,3-f][1,4] diazocine-2,11(3H)-dione]
5 | 630000 M⁻¹ s⁻¹ | C=CC(=O)N1CCn2cc(CN3C[C@H]4CC(=O)N(c5cc(C(F)(F)F)cc(C)n5)[C@@H]4C(=O)N(C)c4cccc(Cl)c43)nc2[C@@H]1C (racemic) [Example 142b]
6 | 1.18e+06 M⁻¹ s⁻¹ | C=C(C)C(=O)N1CC(OCCCN2C[C@H]3CC(=O)N(c4cc(C(F)(F)F)cc(C)n4)[C@@H]3C(=O)N(C)c3cccc(Cl)c32)C1 [Example 165, (3aR,11aS)-6-chloro-5-(3-((1-methacryloylazetidin-3-yl)oxy)propyl)-10-methyl-1-(6-methyl-4-(trifluoromethyl)pyridin-2-yl)-1,3a,4,5,10,11a-hexahydro-2H-benzo[b]pyrrolo[2,3-f][1,4]diazocine-2,11(3H)-dione]
7 | 190000 M⁻¹ s⁻¹ | C=CC(=O)N1C[C@H]2CN(CCN3C[C@H]4CC(=O)N(c5cc(C(F)(F)F)cc(C)n5)[C@@H]4C(=O)N(C)c4cccc(F)c43)CCN2[C@@H](C)C1 [Example 63b, (3aR,11aS)-5-(2-((6S/R,9aR/S)-8-acryloyl-6-methyloctahydro-2H-pyrazino[1,2-a]pyrazin-2-yl)ethyl)-6-fluoro-10-methyl-1-(6-methyl-4-(trifluoromethyl)pyridin-2-yl)-1,3a,4,5,10,11a-hexahydro-2H-benzo[b]pyrrolo[2,3-f][1,4]diazocine-2,11(3H)-dione]
8 | 540000 M⁻¹ s⁻¹ | C=CC(=O)N1CCN2CCN(CCN3C[C@H]4CC(=O)N(c5cc(C(F)(F)F)cc(C)n5)[C@@H]4C(=O)N(C)c4cccc(F)c43)CC2C1 (single isomer, unassigned) [Example 23b]
9 | 1.57e+06 M⁻¹ s⁻¹ | C=CC(=O)N1Cc2cc(CN3C[C@H]4CC(=O)N(c5cc(C(F)(F)F)cc(C)n5)[C@@H]4C(=O)N(C)c4cccc(C)c43)cnc2[C@@H]1CC#N (racemic) [Example 321a, 2-((S/R)-6-acryloyl-3-(((3aR,11aS)-6,10-dimethyl-1-(6-meth-yl-4-(trifluorometh-yl)pyridin-2-yl)-2,11-dioxo-1,2,3,3a, 4,10,11,11a-octa-hydro-5H-benzo[b]pyrrolo[2,3-f][1,4]diazocin-5-yl)meth-yl)-6,7-dihydro-5H-pyrrolo[3,4-b]pyr-idin-7-yl)acetonitrile]
10 | 220000 M⁻¹ s⁻¹ | C=CC(=O)N1CCN2CCN(C(=O)CN3C[C@H]4CC(=O)N(c5cc(C(F)(F)F)cc(C)n5)[C@@H]4C(=O)N(C)c4cccc(F)c43)CC2C1 (mixture of isomers) [Example 76a, (3aR,11aS)-5-(2-((R/S)-8-acryloyloctahydro-2H-pyrazino[1,2-a]pyrazin-2-yl)-2-oxoethyl)-6-fluoro-10-methyl-1-(6-methyl-4-(trifluoromethyl)pyridin-2-yl)-1,3a,4,5,10,11a-hexahydro-2H-benzo[b]pyrrolo[2,3-f][1,4]diazocine-2,11(3H)-dione]
11 | 34000 M⁻¹ s⁻¹ | C=CC(=O)N1CC(Oc2cccc(N3C[C@H]4CC(=O)N(c5cc(C(F)(F)F)cc(C)n5)[C@@H]4C(=O)N(C)c4cccc(F)c43)n2)C1 [Example 57, (3aR,11aS)-5-(6-((1-acryloylazetidin-3-yl)oxy)pyridin-2-yl)-6-fluoro-10-methyl-1-(6-methyl-4-(trifluoromethyl)pyridin-2-yl)-1,3a,4,5,10,11a-hexahydro-2H-benzo[b]pyrrolo[2,3-f][1,4]diazocine-2,11(3H)-dione]
12 | 980000 M⁻¹ s⁻¹ | C=CC(=O)N1CCC(n2cnc(CN3C[C@H]4CC(=O)N(c5cc(C(F)(F)F)cc(C)n5)[C@@H]4C(=O)N(C)c4cccc(C)c43)n2)CC1 [Example 204, (3aR,11aS)-5-((1-(1-acryloylpiperidin-4-yl)-1H-1,2,4-triazol-3-yl)methyl)-6,10-dimethyl-1-(6-methyl-4-(trifluoromethyl)pyridin-2-yl)-1,3a,4,5,10,11a-hexahydro-2H-benzo[b]pyrrolo [2,3-f][1,4]diazocine-2,11(3H)-dione]
13 | 2.72e+06 M⁻¹ s⁻¹ | C=C(CN(C)C)C(=O)N1CC[C@@H](COCCN2C[C@H]3CC(=O)N(c4cc(C(F)(F)F)cc(C)n4)[C@@H]3C(=O)N(C)c3cccc(C)c32)C1 [Example 180, (3aR,11aS)-5-(2-(((R)-1-(2-((dimeth-ylamino)methyl)-acryloyl)pyrrolidin-3-yl)methoxy)eth-yl)-6,10-dimethyl-1-(6-methyl-4-(trifluoromethyl)-pyridin-2-yl)-1,3a,4,5,10,11a-hexahydro-2H-benzo[b]pyrrolo [2,3-f][1,4]diazo-cine-2,11(3H)-dione]
14 | 1.78e+06 M⁻¹ s⁻¹ | C=C(CN(C)C)C(=O)N1CC(CC(F)CCN2C[C@H]3CC(=O)N(c4cc(C(F)(F)F)cc(C)n4)[C@@H]3C(=O)N(C)c3cccc(Cl)c32)C1 (stereo partly drawn) [Example 301, (3aR,11aS)-6-chloro-5-(4-(1-(2-((dimethylamino)methyl)acryloyl)azetidin-3-yl)-3-fluorobutyl)-10-methyl-1-(6-methyl-4-(trifluoromethyl)pyridin-2-yl)-1,3a,4,5,10,11a-hexahydro-2H-benzo[b]pyrrolo[2,3-f][1,4]diazocine-2,11(3H)-dione]

Row | Compound | Kinact/Kl
15 | C=CC(=O)N1CC2(CN(CCN3C[C@H]4CC(=O)N(c5cc(C(F)(F)F)cc(C)n5)[C@@H]4C(=O)N(C)c4cccc(F)c43)C[C@H]3CCCN32)C1 [Example 2, (3aR,11aS)-5-(2-((R)-1-Acryloyltetrahydro-1′H-spiro[azetidine-3,4′-pyrrolo[1,2-a]pyrazin]-2′(3′H)-yl)ethyl)-6-fluoro-10-methyl-1-(6-methyl-4-(trifluoromethyl)pyridin-2-yl)-1,3a,4,5,10,11a-hexahydro-2H-benzo[b]pyrrolo[2,3-f][1,4]diazocine-2,11(3H)-dione] | 670000 M⁻¹ s⁻¹
16 | C=CC(=O)NC1CCN(CCN2C[C@H]3CC(=O)N(c4cc(C(F)(F)F)cc(C)n4)[C@@H]3C(=O)N(C)c3cccc(Cl)c32)CC1(F)F (mixture of isomers) [Example 257b, N—((R/S)-1-(2-((3aR,11aS)-6-chloro-10-methyl-1-(6-methyl-4-(trifluoromethyl)pyridin-2-yl)-2,11-dioxo-1,2,3,3a,4,10,11,11a-octahydro-5H-benzo[b]pyrrolo[2,3-f][1,4]diazocin-5-yl)ethyl)-3,3-difluoropiperidin-4-yl)acrylamide] | 2.56e+06 M⁻¹ s⁻¹
17 | C=CC(=O)N1CC2CC(C1)N2CCN1C[C@H]2CC(=O)N(c3cc(C(F)(F)F)cc(C)n3)[C@@H]2C(=O)N(C)c2cccc(C)c21 [Example 261, (3aR,11aS)-5-(2-(3-acryloyl-3,6-diazabicyclo[3.1.1]heptan-6-yl)ethyl)-6,10-dimethyl-1-(6-methyl-4-(trifluoromethyl)pyridin-2-yl)-1,3a,4,5,10,11a-hexahydro-2H-benzo[b]pyrrolo[2,3-f][1,4]diazocine-2,11(3H)-dione] | 340000 M⁻¹ s⁻¹
